The structures appear in SMILES notation.

The test deals with T1, BhuUV-T (Burkholderia cenocepacia, UniProt B4EKB5).
T1 construct: gene hmuV; His8-BhuU full length with BhuV, plus haem-free BhuT 40-311 (GST cut off by PreScission) in ATPase assay; GFP-tagged BhuT in pull-down; heteropentamer; with Heme ABC transporter permease BhuU
Briefly: His-tag pull-down, release of GFP-BhuT from immobilized BhuUV. Format: binding. To be noted: 1 mM AMP–PNP, 1 mM MgCl2, 0.15% DM, pH 7.5, on ice; nucleotide site of BhuV.

T1 sequence (B4EKB3 entry or part of it): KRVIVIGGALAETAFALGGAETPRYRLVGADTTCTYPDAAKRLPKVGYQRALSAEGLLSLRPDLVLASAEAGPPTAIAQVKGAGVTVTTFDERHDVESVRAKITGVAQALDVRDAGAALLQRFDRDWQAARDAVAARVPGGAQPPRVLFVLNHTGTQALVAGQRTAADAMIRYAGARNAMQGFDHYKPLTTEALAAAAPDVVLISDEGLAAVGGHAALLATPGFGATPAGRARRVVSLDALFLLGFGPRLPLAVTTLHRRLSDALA
T1 sequence (B4EKB4 entry or part of it, further chain): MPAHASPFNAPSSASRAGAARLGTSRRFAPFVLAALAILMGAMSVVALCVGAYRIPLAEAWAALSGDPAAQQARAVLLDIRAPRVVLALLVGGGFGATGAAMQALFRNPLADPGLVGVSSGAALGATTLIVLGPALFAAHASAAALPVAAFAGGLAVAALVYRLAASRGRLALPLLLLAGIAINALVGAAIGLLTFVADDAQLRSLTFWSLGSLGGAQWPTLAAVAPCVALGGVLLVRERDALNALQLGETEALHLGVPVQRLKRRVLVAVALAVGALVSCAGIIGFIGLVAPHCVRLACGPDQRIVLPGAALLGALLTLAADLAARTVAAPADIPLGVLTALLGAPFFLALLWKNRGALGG
T1 sequence (B4EKB5 entry or part of it): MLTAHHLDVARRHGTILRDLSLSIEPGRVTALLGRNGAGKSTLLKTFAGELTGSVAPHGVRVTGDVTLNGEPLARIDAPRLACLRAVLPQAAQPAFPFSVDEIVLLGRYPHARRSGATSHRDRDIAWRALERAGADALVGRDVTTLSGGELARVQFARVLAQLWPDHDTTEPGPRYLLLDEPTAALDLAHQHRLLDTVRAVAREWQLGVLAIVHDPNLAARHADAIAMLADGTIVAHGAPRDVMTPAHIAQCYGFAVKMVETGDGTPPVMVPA

For `Nc1ncnc2c1ncn2[C@@H]1O[C@H](COP(=O)(O)OP(=O)(O)NP(=O)(O)O)[C@@H](O)[C@H]1O` [AMP–PNP], the “His-tag pull-down, release of GFP-BhuT from immobilized BhuUV” value is “both ATP and AMP–PNP caused the dissociation of GFP-BhuT from BhuUV”.

(Values after paper PMC5136619, “Crystal structure of bacterial haem importer complex in the inward-facing conformation” (Nature Communications, 2016).)
